Data published in patent US6548540B2, “Method of treating cancer using dithiocarbamate derivatives” (Charlotte-Mecklenburg Hospital Authority, priority 1998, dated 2003).
Where two headings read alike, the source gives them in different places.

How the values were obtained:
[1] = system: Small cell lung carcinoma NCI-H82; experiment: MTT proliferation assay, small cell lung carcinoma; assay type: cell-based; conditions: Homo sapiens, treatment initially, after 48 hours, 10% FBS, read-out: Mean Percent Inhibition of Growth
Protocol: (§1) Human malignant cell lines were obtained from American Type Tissue Culture Collection (Rockville, Md.). Melanoma cells lines CRL 1585 and 1619 were cultured in RPMI 1640 (GIBCO-BRL, Life Technologies, Grand Island, N.Y.) with 10% FBS and passed with nonenzymatic Cell Dissociation Solution® (Sigma). The prostate adenocarcinoma cell line CRL 1435 (PC-3) was also cultured in RPMI 1640 with 10% FBS but passed with 0.05% trypsin and 0.53 mM EDTA. The squamous lung carcinoma NCI-H520 and the adenosquamous lung carcinoma NCI-H596 cell lines were grown in RPMI 1640 supplemented with 10% FBS, 10 mM HEPES and 1.0 mM sodium pyruvate and passed with trypsin/EDTA. The small cell lung carcinoma NCI-H82 was cultured as a suspension in RPMI 1640 with 10% FBS. All of the above were grown in a 37° C. humidified environment containing 5% CO2/air. The breast carcinoma cell line MDA-MB-453 was grown in a 37° C. humidified environment with free gas exchange with atmospheric air using Leibovitz's L-15 medium with 2 mM L-glutamine and 10% FBS and was passed with trypsin/EDTA.
(§2) The effect of disulfiram (0.15 to 5.0 μM), diethyldithiocarbamate (DDC, 1.0 μM) or PDTC (0.625 to 5.0 μM) on proliferation of malignant cell lines was studied in cultures stimulated with 10% FBS. Cell numbers were quantitated 24-72 hours later. In some experiments disulfiram or PDTC were added immediately after cells were plated. In other experiments, cells were plated and allowed to grow for 24-72 hours before fresh media with disulfiram or PDTC was added, and cell numbers were assayed 24-72 hours later. […]
(§3) Proliferation of cultured cells was quantitated using a previously reported calorimetric method based upon metabolic reduction of the soluble yellow tetrazolium dye 3-[4,5-dimethylthiazol]-2yl-2,5-diphenyl tetrazolium bromide (MTT) to its insoluble purple formazan by the action of mitochondrial succinyl dehydrogenase (See, e.g., S. J. Hirst, et al., “Quantifying proliferation of cultured human and rabbit airway smooth muscle in response to serum and platelet derived growth factor,” Am. J. Respir. Cell Mol. Biol. 7:574-581 (1992); R. Dashtaki, et al. R., supra; S. S. Brar, et al., “Requirement for reactive oxygen species in serum-induced and platelet-derived growth factor-induced growth of airway smooth muscle,” J. Biol. Chem. 274:20017-20026 (1999)). […] MTT-containing medium was removed, 0.5 ml dimethylsulfoxide (DMSO) was added to each well, and the absorbance of the solubilized purple formazan dye was measured at 540 nm. […]

tumor cell lines = experiment: Proliferation of tumor cell lines with redox, NO synthase or cyclooxygenase agents (cell line not given); assay type: cell-based, human
Protocol: Potential redox effects of disulfiram were studied in three sets of experiments. The importance of cellular glutathione (GSH) in mediating or modulating thiocarbamate toxicity was studied by measuring levels of intracellular GSH after treatment with disulfiram. […] Also, to assess whether a nonspecific antioxidant effect of disulfiram or PDTC might account for cellular growth inhibition, we studied the effect of the potent lipophilic antioxidant probucol (1.0 to 1,000 μM) on proliferation of malignant cell lines. […] To explore the role of cyclooxygenase inhibition on tumor cell growth, cells were cultured with or without disulfiram in the presence or absence of the cyclooxygenase-1 (COX1) and cyclooxygenase-2 (COX2) inhibitors indomethacin (5μg/ml) or sodium salicylate (1 mM). To probe whether disulfiram might be inducing growth retardation by interruption or stimulation of NO production, proliferation was studied with and without disulfiram in the presence and absence of the nitric oxide […] inhibitor Nω-nitro-L-arginine added to growth medium (100 μM). […] J. Respir. Cell Mol. Biol. 7:574-581 (1992); […], et al. R., supra; S. S. Brar, et al., “Requirement for reactive oxygen species in serum-induced and platelet-derived growth factor-induced growth of airway smooth muscle,” J. Biol. Chem. 274:20017-20026 (1999)). This assay empirically distinguishes between dead and living cells. For proliferation studies, cells were seeded into 24-well uncoated plastic plates (Costar) at 50,000 cells per well and cultured with respective media and mitogens. […] MTT-containing medium was removed, 0.5 ml dimethylsulfoxide (DMSO) was added to each well, and the absorbance of the solubilized purple formazan dye was measured at 540 nm. A total of 4-6 wells were studied at each treatment condition.

[2] = system: Squamous lung carcinoma NCI-H520; experiment: MTT proliferation assay, squamous lung carcinoma; assay type: cell-based; conditions: Homo sapiens, treatment initially, after 48 hours, 10% FBS, read-out: Mean Percent Inhibition of Growth
Protocol: as §1, §2, §3

[3] = system: Breast carcinoma MDA-MB-453; experiment: MTT proliferation assay, breast carcinoma; assay type: cell-based; conditions: Homo sapiens, read-out: Mean Percent Inhibition of Growth; for inhibition at 0.625 µM: disulfiram 0.625 μM; for inhibition at 1.25 µM: disulfiram 1.25 μM; for inhibition at 2.5 µM: disulfiram 2.5 μM; for inhibition at 5 µM: disulfiram 5.0 μM
Protocol: as §1
The effect of disulfiram (0.15 to 5.0 μM), diethyldithiocarbamate (DDC, 1.0 μM) or PDTC (0.625 to 5.0 μM) on proliferation of malignant cell lines was studied in cultures stimulated with 10% FBS. Cell numbers were quantitated 24-72 hours later. In some experiments disulfiram or PDTC were added immediately after cells were plated. In other experiments, cells were plated and allowed to grow for 24-72 hours before fresh media with disulfiram or PDTC was added, and cell numbers were assayed 24-72 hours later. Synergy was studied between disulfiram and N,N′-bis(2-chloroethyl-N-nitrosourea (carmustine or BCNU, 1.0 to 1,000 μM) or cisplatin (0.1 to 100 μg/ml) added to medium. The effect of metals on disulfiram was studied with 0.2 to 10 μM copper (provided as CuSO4), zinc (as ZnCl2), silver (as silver lactate) or gold (as HAuCl4.3H2O) ions added to growth medium. No pH changes occurred with addition of metal salts to culture medium. To provide a biologically relevant source of copper, in some experiments medium was supplemented with human ceruloplasmin at doses replicating low and high normal adult serum concentrations (250 and 500 μg/ml).
Proliferation of cultured cells was quantitated using a previously reported calorimetric method based upon metabolic reduction of the soluble yellow tetrazolium dye 3-[4,5-dimethylthiazol]-2yl-2,5-diphenyl tetrazolium bromide (MTT) to its insoluble purple formazan by the action of mitochondrial succinyl dehydrogenase (See, e.g., S. J. Hirst, et al., “Quantifying proliferation of cultured human and rabbit airway smooth muscle in response to serum and platelet derived growth factor,” Am. J. Respir. Cell Mol. Biol. 7:574-581 (1992); R. Dashtaki, et al. R., supra; S. S. Brar, et al., “Requirement for reactive oxygen species in serum-induced and platelet-derived growth factor-induced growth of airway smooth muscle,” J. Biol. Chem. 274:20017-20026 (1999)). This assay empirically distinguishes between dead and living cells. For proliferation studies, cells were seeded into 24-well uncoated plastic plates (Costar) at 50,000 cells per well and cultured with respective media and mitogens. After 24-96 hours, medium was removed, cells were washed twice with 1 ml of sterile Dulbecco's modified phosphate buffered saline without Ca^2+ or Mg^2+ (DPBS), the medium was replaced with 1 ml/well fresh medium containing 100 μg/ml MTT, and plates were incubated an additional hour. MTT-containing medium was removed, 0.5 ml dimethylsulfoxide (DMSO) was added to each well, and the absorbance of the solubilized purple formazan dye was measured at 540 nm. A total of 4-6 wells were studied at each treatment condition. Preliminary studies were performed with 50-200 μg/ml MTT incubated for 15 minutes to 3 hours to determine the optimum concentration and incubation time at which the rate of conversion was linear and proportional to the number of cells present. […]

[4] = section 'Treatment after 24 hours' (breast grown 48 hours), additional 48 hours
[5] = treatment initially, after 48 hours, 10% FBS

With `CCN(CC)C(=S)SSC(=S)N(CC)CC` [Disulfiram, tetraethylthiuram disulfide] as the molecule, how does the inhibition at 0.625 µM ([1]; disulfiram 0.625 μM) read?
The inhibition at 0.625 µM was 68 ± 3%.

And the inhibition at 1.25 µM ([1]; disulfiram 1.25 μM)?
Its inhibition at 1.25 µM is 76 ± 6%.

And the inhibition at 2.5 µM ([1]; disulfiram 2.5 μM)?
Its inhibition at 2.5 µM is 76 ± 5%.

And the inhibition at 5 µM ([1]; disulfiram 5.0 μM)?
The inhibition at 5 µM was 72 ± 3%.

And the inhibition of growth (tumor cell lines; disulfiram alone)?
The inhibition of growth was 36.8±4.0%.

What about the inhibition of growth (tumor cell lines; disulfiram plus LNAME) of the same molecule?
Its inhibition of growth is 26.7±3.1%.

What about the inhibition at 0.625 µM ([2]; disulfiram 0.625 μM) of the same molecule?
Its inhibition at 0.625 µM is 76 ± 3%.

And the inhibition at 1.25 µM ([2]; disulfiram 1.25 μM)?
Its inhibition at 1.25 µM is 82 ± 4%.

What about the inhibition at 2.5 µM ([2]; disulfiram 2.5 μM) of the same molecule?
Its inhibition at 2.5 µM is 77 ± 4%.

What about the inhibition at 5 µM ([2]; disulfiram 5.0 μM) of the same molecule?
Its inhibition at 5 µM is 78 ± 3%.

What about the inhibition at 0.625 µM [3, 4] of the same molecule?
The inhibition at 0.625 µM was 26 ± 5%.

What about the inhibition at 0.625 µM [3, 5] of the same molecule?
Its inhibition at 0.625 µM is 69 ± 4%.

What about the inhibition at 1.25 µM [3, 4] of the same molecule?
Its inhibition at 1.25 µM is 26 ± 2%.

And the inhibition at 1.25 µM [3, 5]?
The inhibition at 1.25 µM was 94 ± 2%.

What about the inhibition at 2.5 µM [3, 4] of the same molecule?
Its inhibition at 2.5 µM is 39 ± 2%.

What about the inhibition at 2.5 µM [3, 5] of the same molecule?
Its inhibition at 2.5 µM is 100%.

And the inhibition at 5 µM [3, 4]?
The inhibition at 5 µM was 46 ± 4%.

And the inhibition at 5 µM [3, 5]?
Its inhibition at 5 µM is 100%.
